# Source: a melting point compilation (Tetko et al.; mined from patent text by program, amines drawn as free bases though some values may be those of a salt)
row,Compound,melting point
1,CN1C(=O)CC[C@]2(C)c3ccc(C=Cc4cnc5ccccc5c4)cc3CC[C@@H]12,181 to 183 °C
2,CCOc1cc(OCCCc2cn(-c3ccc(C(F)(F)F)cn3)nc2OC)ccc1CCC(=O)O,145 to 146 °C
3,CC(=O)OCC1CC(=O)NN=C1c1ccc2c(c1)CCC(=O)N2C (stereo not drawn),149 to 153 °C
4,CNC(=O)c1ccc(C2=N[C@H]3CCCC[C@H]3c3cc(OC)c(OC)cc32)cc1 (racemic),209 to 211 °C
5,Cn1c([N+](=O)[O-])cnc1CSc1ccccn1,108 °C
6,COc1nc(C)nc(NC(=O)NS(=O)(=O)c2ccccc2C(=S)C(C)C)n1,155 to 158 °C
7,CC(C)OCc1nc(C(C)(C)O)c(C(=O)O)n1Cc1ccc(-c2ccccc2-c2nnn[nH]2)cc1,153 to 161 °C
8,CCN(CC)C(=O)c1cccc2c(=O)c(C)c(-c3ccc(OC)cc3)oc12,143 to 147 °C
9,CC(C)C(N)CN1CCC(Nc2nc3ccccc3[nH]2)CC1 (stereo not drawn),138 °C
10,Cc1ccc(N2CC(=O)N(c3ccc(S(N)(=O)=O)cc3Cl)C2)cc1,223 to 226 °C
11,CCOC(=O)Cc1ccc(-c2nc(COc3ccc(COc4nn(-c5ccccc5)cc4/C=C/c4csc(C)n4)cc3OC)c(C)o2)cc1,153 to 155 °C
12,NC(=O)CC(=O)NCCS,100 °C
13,Cc1c(-c2ccc(OCc3ccccc3)cc2)n(Cc2ccc(OCCN3C[C@@H]4CC[C@H]3C4)cc2)c2ccc(OCc3ccccc3)cc12,95 to 100 °C
14,COC(=O)c1ccccc1-c1cc(-c2cccc(C(F)(F)F)c2)no1,46 to 48 °C
15,CNC(=S)C1(c2cncc(Br)c2)CCCCC1=O (stereo not drawn),201 to 203 °C
16,Cn1c(=O)c(C#N)c(N2CCNCC2)c2cc(F)ccc21,211 °C
17,Cc1c(F)c(N2CCNCC2)c(C)c2c1c(=O)c(C(=O)O)cn2C1CC1,185 to 187 °C
18,CCOC(=O)c1ccc2c(c1)C(=CCCI)CN2,81 °C
19,COCCOc1ccc(CCCOC(=O)NS(=O)(=O)c2ccccc2)c(Oc2ncc(C(F)(F)F)cc2Cl)c1,174 to 177 °C
20,COc1cc(C)nc(NC(=O)NS(=O)(=O)c2ccccc2-n2cccn2)n1,200 to 204 °C
21,CCn1nc(C(N)=O)cc1CC(C)C,125 to 126 °C
22,Cc1nn(-c2ccccn2)c2nc3ccccc3c(C#N)c12,210 to 211 °C

row,Compound,melting point
1,CC(C)P1(=O)c2ccccc2CN1c1ccc(Cl)cc1 (stereo not drawn),172 to 174 °C
2,CNC(=O)c1cc(-c2ccc(OC)cc2)nn(CC2CC2)c1=O,137 to 138 °C
3,CCOC(=O)Nc1ccc(C(=O)c2ccccc2)cc1COC1CCCCO1 (stereo not drawn),116 °C
4,CC1CN2C(=NC1=O)CCC2C (stereo not drawn),150 to 152 °C
5,COc1ccc(C(=O)C=Cc2ccc(SC)cc2)cc1,112 °C
6,COCc1cc(OC)c(-c2ccc(C[C@H](NC(=O)c3c(Cl)cccc3Cl)C(=O)O)cc2)c(OC)c1,232 to 235 °C
7,CCCCCCCCCCCCCCCCCCOCC(Br)COCCCCCCCCCCCCCCCCCC,47.9 to 48.7 °C
8,N#CC(C#N)=CNc1ccc(C(N)=O)cn1,215 to 218 °C
9,CC(=Cc1ccccc1)c1ccc2c(c1)C(C)(C)CCO2,64 to 65 °C
10,Cc1cc2c(cc1C1=NNC(=O)CC1C)NC(=O)CO2 (stereo not drawn),163 to 166 °C
11,COc1ccc2cc(C(=O)C(C)O[Si](C)(C)C)ccc2c1 (stereo not drawn),72 to 75 °C
12,O=C1CC(O)c2ccc(F)cc21 (stereo not drawn),73 to 76 °C
13,CCN(c1cccc(Cl)c1)C(C(=O)O)c1c(Cl)cccc1Cl (stereo not drawn),120 °C
14,N#Cc1c[nH]c2c(C(=O)O)cccc12,318 °C
15,c1ccc(-n2c(Cc3cccnc3)nc3ccccc32)cc1,115 to 116 °C
16,COc1cc(C(N)=O)c([N+](=O)[O-])cc1OCc1ccccc1,222 to 224 °C
17,CCc1nc(C)c(CCC(=O)N(CC)CC)c(=O)n1Cc1ccc(-c2ccccc2-c2nnn[nH]2)cc1,100 to 105 °C
18,O=C1[C@@H]2Cc3ccccc3CN2C(=O)N1c1cc(Cl)cc(Cl)c1,243 °C
19,Cc1c(Cl)cccc1S(=O)(=O)n1c(CCCC(=O)O)cc2nc(Cl)ccc21,127 to 128 °C
20,COc1cc(C(=O)O)ccc1Cc1cccc2ccc(CCCC(=O)N3CCOCC3)cc12,160 to 161 °C
21,N[C@@H](CN1CCC(=C2c3ccccc3CCc3ccccc32)CC1)C(=O)O,150 to 151 °C
22,CCCC#Cc1cnc(-c2ccc(C(F)(F)F)cc2)nc1,140 °C

row,Compound,melting point
1,CCc1c(NC(=O)c2cc(S(C)(=O)=O)ccc2OCC(C)C)c(C(N)=O)nn1Cc1nccn1C,201 to 206 °C
2,CCc1cc(C#N)c(OC)nc1C,59 to 61 °C
3,C=CCNC(=S)n1nc(Oc2ncc(C(F)(F)F)cc2Cl)cc1C,46 to 48 °C
4,CC(C)Cn1c(-c2ccccc2)nc2cnc3ccccc3c21,139 to 140 °C
5,CCOc1cc(-c2cc(C(F)(F)F)n3ncc(-c4nc(-c5ccc(N)nc5)no4)c3n2)ccc1C(F)(F)F,263 °C
6,CCC(=O)c1cc(Cl)ccc1NS(=O)(=O)C(F)(F)F,54 to 55 °C
7,CC(C)[C@H]1CC[C@H](C(=O)CO)CC1,43 to 44 °C
8,Cn1c2c(c3ccccc31)Cc1c(CO)c(CO)c(-c3ccc(Cl)cc3)n1C2,238 to 239 °C
9,COC(=O)c1ccc(C=CC(=O)N2CCc3c([nH]c4ccccc34)C2c2ccccc2)cc1 (stereo not drawn),222 °C
10,Fc1ccc2[nH]cc(C3=CCN(CC4COc5ccc6ncccc6c5O4)CC3)c2c1 (stereo not drawn),184 °C
11,CC(C)C[C@@H](C#N)NC(=O)[C@@H]1CCCC[C@@H]1NC(=O)c1ccc2ncsc2c1,200 to 201 °C
12,O=C(NCc1ccc(Cl)cc1)c1nn(-c2ccccc2)c2sc(CN3CCOCC3)cc2c1=O,182 to 184 °C
13,OC1CC(c2ccc(-c3ccc(OCc4ccc(Br)cc4)cc3)cc2)Cc2ccccc21 (stereo not drawn),178 °C
14,COc1ccc2c(c1)C(N1CCN(C)CC1)c1ccccc1CC2 (stereo not drawn),119 to 120 °C
15,CCC1C(=O)Nc2ccc(-c3ccc(C#N)n3C)cc21 (stereo not drawn),145 to 147 °C
16,Cc1cccc2c1NC(=O)C(NC(=O)OCc1ccccc1)N=C2c1ccccc1F (racemic),222 to 225 °C
17,O=C(Cc1cncs1)c1ccc(Cl)cc1Cl,75 to 77 °C
18,COC(=O)Cc1nc(-c2ccc(OC)cc2)c(-c2ccc(OC)cc2)s1,79 to 81.5 °C
19,CCOC(=O)C(OC)C(=O)Nc1cccc(Cl)c1 (stereo not drawn),43.5 to 46.5 °C
20,Cc1cc(C)c(S(=O)(=O)N(C)C)cc1[N+](=O)[O-],113 °C
21,CNc1nc(NN)ncc1C#N,247 to 249 °C
22,Cc1ccc(NC(=O)c2ccc(O)c(N)c2)cc1C,220 to 223 °C

# Further lines, results first:
row,melting point,Compound
1,250 °C,NS(=O)(=O)c1ccc(-c2cccc(-c3nc(-c4ccc(C(F)(F)F)nc4)cc(C(F)(F)F)n3)c2)s1
2,325 to 326 °C,CC(C)(C)c1ccc(Sc2cc(C(=O)O)ccc2C(=O)O)cc1
3,178 °C,Cc1cc(-n2ccnc2)c2cccc(OCc3c(Cl)ccc(S(=O)(=O)N4CCC[C@H]4C(=O)NCC4CCN(CCCC(=O)O)CC4)c3Cl)c2n1
4,84 to 86 °C,O=C(N[C@@H](Cc1c[nH]c2ccccc12)C(=O)O)c1ccccc1
5,70 to 71 °C,O=S(CSc1ccc(Cl)cc1)c1ccccc1 (stereo not drawn)
6,114 °C,CC(=O)c1cc2c(C(C)=O)c(OCC3CO3)ccc2o1 (stereo not drawn)
7,58 to 60 °C,C[C@@H](C(N)=O)c1ccc(NS(=O)(=O)c2cccs2)cc1
8,169 to 170 °C,CNc1ccc2cc(Br)ccc2c1[N+](=O)[O-]
9,134 to 135 °C,Cc1cc(Nc2ccnc(Nc3ccc(S(=O)(=O)N(CCN)C4CCNCC4)cc3)n2)ccc1F
10,246 °C,"O=C1NC(=O)C2(N1)C(=O)N(Cc1ccc(Cl)c(Cl)c1)c1c(F)cccc12 (single isomer, unassigned; (+))"
11,140 to 145 °C,CCC1C(=O)Nc2c(C(=O)c3ccc(Cl)cc3)cccc21 (stereo not drawn)
12,264 to 266 °C,CN(C)C1=NC(NC(=O)CC2CCCCC2)C(=O)N(c2ccccc2)c2ccccc21 (stereo not drawn)
13,148 to 149 °C,C[C@@H]1OC(=O)[C@H]2[C@H]3O[C@H]([C@H]4CCCC[C@H]43)[C@@H]21
14,71 to 72.5 °C,COc1cc(OC)nc(Oc2ccccc2C(=O)ON(C)C)n1
15,237 °C,Cc1nnc2n1-c1ccc(Cl)cc1C(c1ccccc1)S2 (stereo not drawn)
16,190 °C,CCOC(=O)c1cn(C)c2nc3cc(N4CCNC(Cc5ccccc5)C4)c(F)cc3cc2c1=O (racemic)

row,melting point,Compound
1,57 to 58 °C,CCCCCCCCc1ccc(CCC(NC(C)=O)(C(=O)OCC)C(=O)OCC)s1
2,> 250 °C,N#Cc1c(Cl)[nH]c2cccnc12
3,214 to 215 °C,CCn1cc2c(n1)c(N)nc1cc(O)ccc12
4,212 to 213 °C,Cc1c2c(c(C)c(NC(=O)CC(C)(C)C)c1-c1ccccc1)C(c1ccc(C(C)C)cc1)CO2 (stereo not drawn)
5,225 to 227 °C,CC(C)c1ccccc1NC(=O)c1ccccc1C(c1ccc(O)cc1)c1ccc(O)cc1
6,132 to 133 °C,COc1c(Cl)ccc(-c2nc(C(=O)OCc3ccccc3)c(Cl)c(N)c2F)c1F
7,128 to 129 °C,CCNC(=O)c1ccc(C#CCc2ccc3c(c2)C(C)(C)CCC3(C)C)cc1
8,85 to 100 °C,COc1ccc2c(c1)CCC1=C2CCC2(C(C)C)C(=O)CCC12 (stereo not drawn)
9,142 to 145 °C,CC(C)N(CCC(CC(=O)N1CCCCC1)(C(=O)N(C)C)c1ccccc1)C(C)C (stereo not drawn)
10,285 to 289 °C,NNC(=O)c1cc2ccncc2c2sc3ccccc3c12
11,171 to 172 °C,NS(=O)(=O)C(F)(F)c1nnc(C(F)(F)S(N)(=O)=O)o1
12,126 to 128 °C,Fc1ccc(OCCCN2CCN(c3ncc4ccccc4n3)CC2)cc1
13,80 °C,CC(C)(C)c1cccc(S(=O)(=O)n2c(CBr)cc3cc(C(F)(F)F)ccc32)c1
14,150 to 153 °C,Cc1nnc(-c2ccccc2F)n2nc(OCc3ncnn3C)c(-c3ccoc3)c12
15,138 to 140 °C,CCCC/C=C\c1c([C@H](O)[C@H](CCCC)NC(=O)[C@H](CC(C)C)NC(=O)OCC2CCCCC2)c1=O
16,134 to 135 °C,CCN(C)N1CSC(=Cc2cc(C(C)(C)C)c(O)c(C(C)(C)C)c2)C1=O
